Values after ≈ are worked out from the molar mass of the structure shown. Where two headings read alike, the source gives them in different places.
Experiments:
Plasmodium falciparum = assay: In vitro anti-malarial activity against Plasmodium falciparum, IC50 assay / [3H]-hypoxanthine incorporation assay; assay type: cell-based; conditions: Erythrocyte, parasitized red blood cells, 48 hours
Experimental: In Vitro Anti-malarial Activity Against Plasmodium falciparum
IC50 Assay/[^3H]-Hypoxanthine Assay
Plasmodium falciparum strains.
The culture medium comprised RPMI 1640 with 25 mM HEPES, sodium bicarbonate and glutamine (GIBCO™ cat. ref.: 52400), supplemented with 10% of pooled human sera AB (Irvine Scientific, cat. ref.: 5009) and HT supplement (0.15 mM hypoxanthine and 24 μM thymidine), (GIBCO™ cat. ref.: 41065). Human sera were decomplemented 30 min. at 56° C., aliquoted and stored frozen at −20° C. until use in this culture medium.
Red blood cells O+ stock suspensions were prepared from whole blood bags coming from incomplete blood donation, provided by the Spanish Red Cross (<25 days after sampling). This “whole blood” was aliquoted and stored at 4° C.
To prepare red blood cells for the assay, the whole blood was centrifuged and washed 3 times with RPMI without serum. The upper phase, containing white blood cells was removed. The washed red blood cells were kept as a 50% suspension in complete medium. The prepared cells were stored at 4° C. and were employed in the assay at any time up to 4 days after preparation.
Test compounds were dissolved at 2 mg/ml in 100% DMSO on the day of the assay. If necessary, complete dissolution was achieved by gentle heating (the mixture was heated at a temperature <37° C.) and sonication (sonication bath).
For IC50 determinations, 10 serial 2-fold dilutions were prepared in complete medium in the presence of a constant amount of DMSO.
Plasmodium falciparum strains were maintained in complete medium at an hematocrit of 5% in continuous culture using a method adapted from Trager and Jensen (1, 2).
The parasitemia was calculated by counting the percentage of parasitized erythrocytes by optical microscopy. Thin films of blood were made every day from each culture flask, fixed with methanol and stained for 10 min. in Giemsa (Merck, cat ref.: 1.09204) at 10% in buffered water pH 7.2. The glass slides were observed and counted with an optical microscope (Nikon, Eclipse E200) equipped with a 100× immersion oil objective.
The culture was maintained at an hematocrit of 5%, with a daily change of medium and was diluted when parasitemia had reached about 5%.
[^3H] Hypoxanthine incorporation assay was conducted using a method adapted from Desjardins et al. (3). The assays were performed in 96 wells flat bottom microplates.
1. Serial dilutions of the test compounds (50 μl of a 5× solution/well) were deposited in duplicate. Compounds of the invention were tested in this assay. Chloroquine and Atovaquone were used as control compounds for each assay.
3. [^3H]-Hypoxanthine (Amersham Biosciences, cat. ref.: TRK74) was added extemporaneously to the inoculum suspension at a concentration of 1 μCi/ml (equating to […]). 200 μl of the resulting suspension was distributed into each well (other than the control well H12 described below) leading to a final volume of 250 μl per well, at 2% of hematocrit and 0.5% of parasitemia/well.
4. In each plate, 2 columns were reserved for control wells: • Column 11: Positive control wells: PRBCs with 0.2% DMSO—(i) to determine DMSO solvent effect on parasite growth (at a final concentration of 0.2%) and (ii) to compare with cultures treated with test compounds. • Column 12 (comprising wells A12-H12): • A12-D12—Background value wells: Uninfected RBCs—blank control to obtain the background reading from RBCs without parasites. • E12-G12—Solvent effect wells: PRBCs without DMSO—to determine DMSO solvent effect on PRBCs by comparing these wells with column 11 wells. • H12-Non-radioactive well: PRBCs with cold hypoxanthine—(i) to carry out a thin blood film to determine parasitemia value after incubation by microscopy and (ii) to ensure that the parasites have grown properly during the assay. (200 μl of inoculum suspension was prepared as described above (Items 2 and 3) but with non-tritiated hypoxanthine instead of [3H]-hypoxanthine, then added to this well to a final volume of 250 μl). […]

[1] = Compound solubility determination (gross and equilibrium solubility; FaSSIF, FeSSIF, pH 7.4 PBS, pH 1.0 0.1N HCl, pH 4.5 sodium citrate); assay type: physicochemical; conditions: thermodynamic from solid
Experimental: Compound Solubility Determination
An amount of 3 mg solid compound with LC-MS purity ≧95% was required. This amount was split between 3 different glass vials (1.8 ml volume each), placing 1 mg compound into each one.
Organic solvents of HPLC grade were used. Ultra pure water (Milli-Q grade) was used. Buffers were prepared with ultra pure water and filtered using 0.45μ cameo filters. The compositions of each solvent employed in this assay are described below (part III).
2. Determination of Equilibrium Solubility (Assuming Chemical Stability in the Desired Solvent is not a Problem).
For each of the three vial samples prepared as described above, in which the amount of compound was totally dissolved, the following procedure was subsequently carried out: • a) A small amount (approx. 0.1 mg) of additional solid compound was added to the vial to maintain an excess of the compound in the mixture in the form of undissolved solid. • b) The samples were magnetically stirred for 24 hr. If required, additional solid compound (0.1 mg) was added to maintain excess of it and then the samples were stirred again. • c) Then the samples were filtered (Millipore Milex filters nylon 0.2 um) and three aliquots were taken (one from each of the three vials) and analysed by LC-MS. • d) The pH of the final solution in each sample was measured with a pH-meter (WTW pH330i and a pH-electrode Sentix 41).
3. LC-MS Assay for Analytical Quantification
All filtered aliquots were analysed by LC-MS. The analysis was carried out with a Luna 5 μC18 (2) column 4.6×150 mm, using a HP1100 HPLC instrument interfaced with a Waters ZMD-2000 MS spectrometer. The concentration of the final sample as prepared above was calculated from that of a reference calibration curve obtained from serial dilutions of a 2 mM solution of the compound under investigation in DMSO (Aldrich cat. ref.: 27685-5) stock solution.
The analysis of all LC-MS data was performed with MassLynx 3.4 software. Statistical and graphic analysis of data was performed using Microsoft Excel. The concentration (uM) and solubility (ug/ml) for each compound was calculated using the peak areas from the sample and those from the calibration curve.
A) FaSSIF is a solvent which simulates the Fasted State of the Intestinal Fluid. (FaSSIF: Fasted State Simulated Intestinal Fluid).
B) FeSSIF is a solvent which simulates the Fed State of the Intestinal Fluid. (FeSSIF: Fed State Simulated Intestinal Fluid).
C) Solubility at pH 7.4 was determined in phosphate buffered saline (PBS) (Fluka cat. ref: 79383)
D) Solubility at pH 1.0 was determined in 0.1N HCl solution (Scharlau AL0744010C)
E) Solubility at pH 4.5 was determined in sodium citrate 0.5M solution. (Aldrich 25, 127-5)

[2] = aqueous buffer, pH 4.5 (Na citrate), read-out: Solubility at pH 4.5 (Na citrate)
[3] = aqueous buffer, pH 7.4 (PBS), read-out: Solubility at pH 7.4 (PBS)
[4] = fassif, read-out: Solubility in FaSSIF
[5] = simulated gastric fluid, pH 1 (HCl), read-out: Solubility at pH 1 (HCl)
[6] = 0.1N HCl solution, simulated gastric fluid, pH 1 (HCl), read-out: Solubility at pH 1 (HCl)
[7] = FaSSIF (fasted state simulated intestinal fluid), fassif, read-out: Solubility in FaSSIF
[8] = FeSSIF (fed state simulated intestinal fluid), fessif, read-out: Solubility in FeSSIF
[9] = phosphate buffered saline (PBS), aqueous buffer, pH 7.4 (PBS), read-out: Solubility at pH 7.4 (PBS)
[10] = sodium citrate 0.5M solution, aqueous buffer, pH 4.5 (Na citrate), read-out: Solubility at pH 4.5 (Na citrate)

SMILES | IC50 (Plasmodium falciparum) | solubility at 24 h [1, 2] | solubility at 24 h [1, 3] | solubility at 24 h [1, 4] | solubility at 24 h ([1]; fessif, read-out: Solubility in FeSSIF) | solubility at 24 h [1, 5] | solubility at 24 h [1, 6] | solubility at 24 h [1, 7] | solubility at 24 h [1, 8] | solubility at 24 h [1, 9] | solubility at 24 h [1, 10]
CCCCCCCCCc1cnc(-c2c(C)[nH]c(C)c(Cl)c2=O)nc1 [Example 50, 3-Chloro-2,6-dimethyl-5-(5-nonyl-2-pyrimidinyl)-4(1H)-pyridinone] | < 0.125 µg/mL | < 1 µg/mL | < 1 µg/mL | < 1 µg/mL | 1 to 5 µg/mL (≈ 2.76 to 13.8 µM) | 5 to 10 µg/mL (≈ 13.8 to 27.6 µM) |  |  |  |  | 
Cc1[nH]c(C)c(-c2cnc(-c3ccc(OC(F)(F)F)cc3)nc2)c(=O)c1Cl [Example 51, 3-Chloro-2,6-dimethyl-5-{2-[4-(trifluoromethyloxy)phenyl]-5-pyrimidinyl}-4(1H)-pyridinone] | < 0.125 µg/mL |  |  |  |  |  | 1 to 5 µg/mL (≈ 2.53 to 12.6 µM) | 1 to 5 µg/mL (≈ 2.53 to 12.6 µM) | 5 to 10 µg/mL (≈ 12.6 to 25.3 µM) | < 1 µg/mL | < 1 µg/mL
Cc1[nH]c(C)c(-c2ccc(-c3cccc(Cl)c3)nc2)c(=O)c1Br [Example 20, 5-Bromo-6′-(3-chlorophenyl)-2,6-dimethyl-3,3′-bipyridin-4(1H)-one] | < 0.125 µg/mL |  |  |  |  |  | ≥ 50 µg/mL | < 1 µg/mL |  | < 1 µg/mL | < 1 µg/mL
Cc1[nH]c(C)c(-c2ccc(-c3cc(C(F)(F)F)ccc3Cl)nc2)c(=O)c1Cl [Example 57, 5-chloro-6′-[2-chloro-5-(trifluoromethyl)phenyl]-2,6-dimethyl-3,3′-bipyridin-4(1H)-one] | < 0.125 µg/mL |  |  |  |  |  | ≥ 50 µg/mL | 5 to 10 µg/mL (≈ 12.1 to 24.2 µM) | 10 to 50 µg/mL (≈ 24.2 to 121 µM) | < 1 µg/mL | < 1 µg/mL
Cc1[nH]c(C)c(-c2ccc(-c3ccc(C(F)(F)F)cc3)nc2)c(=O)c1Br [Example 16, 5-Bromo-2,6-dimethyl-6′-{4-[trifluoromethyl]phenyl}-3,3′-bipyridin-4(1H)-one] | < 0.125 µg/mL |  |  |  |  |  | 10 to 50 µg/mL (≈ 23.6 to 118 µM) | < 1 µg/mL |  | < 1 µg/mL | < 1 µg/mL
Cc1[nH]c(C)c(-c2ccc(Oc3ccc(OC(F)(F)F)cc3)nc2)c(=O)c1Cl [Example 49, 5-Chloro-2,6-dimethyl-6′-({4-[(trifluoromethyl)oxy]phenyl}oxy)-3,3′-bipyridin-4(1H)-one] | < 0.125 µg/mL |  |  |  |  |  | 5 to 10 µg/mL (≈ 12.2 to 24.3 µM) | < 1 µg/mL | < 1 µg/mL | < 1 µg/mL | < 1 µg/mL
Cc1[nH]c(C)c(-c2ccc(OCc3ccc(C(F)(F)F)cc3)nc2)c(=O)c1Cl [Example 10, 5-Chloro-2,6-dimethyl-6′-{[4-(trifluoromethyl)benzyl]oxy}-3,3′-bipyridin-4(1H)-one] | < 0.125 µg/mL | < 1 µg/mL | < 1 µg/mL | < 1 µg/mL |  | 5 to 10 µg/mL (≈ 12.2 to 24.5 µM) |  |  |  |  | 
